From article PMC11242853, “The Antimicrobial Activity of Human Defensins at Physiological Non-Permeabilizing Concentrations Is Caused by the Inhibition of the Plasma Membrane H^+-ATPases” (International Journal of Molecular Sciences, 2024)
“Also recorded” adds a separate entry of the source. Where no end group is shown, it is not given here.

Legend:
C. albicans cells = assay: Total cellular ATP (BacTiter-Glo); format: cell-based, Candida albicans; details: for ATP increment: Table 2, no reference given; for increase in ATP levels compared to the untreated control: defensins at NPIC, human lactoferrin 5 μM, BM2 peptide 0.25 μM, 10^6 cells/mL, BacTiter-Glo luminescence
Protocol: Total ATP was measured using the BacTiter-Glo^TM Microbial Cell Viability Assay (Promega Co., Madison, WI, USA) according to the manufacturer’s instructions. […] Aliquots (100 µL) were incubated (90 min at 37 °C) with human defensins (NPICs). Human lactoferrin (5 μM) or BM2 peptide (0.25 μM) was used as positive controls. One hundred microliters of the incubation mixture was transferred to an opaque 96-well plate, mixed with an equal volume of BacTiter-Glo^TM reagent, and incubated for 15 min in the dark. The reagent uses a thermostable luciferase to generate luminescence in an ATP-dependent manner. The emitted luminescence was detected using a Varioskan Flash multimode reader (Thermo Scientific, Waltham, MA, USA) with a 10 s shaking and 1 s integration time. A calibration curve was generated for each experiment with ATP standards ranging from 1 to 1000 nM. All assays were performed at least three times in duplicate.

[1] = tested on: Candida albicans ATCC 10231; assay: Antimicrobial spread-plate (CFU) killing assay, C. albicans; format: cell-based; details: for candidacidal activity (comparison among defensins): 0–2 μM, 90 min at 37 °C, Tris buffer; for effect of high extracellular K+ on candidacidal activity: 50 mM KCl, defensins at NPIC, hLf 5 μM, BM2 0.25 μM, nystatin 50 μM; for non-permeabilizing inhibitory concentration (NPIC), C. albicans: antimicrobial concentration (≤10% viable cells) that permeabilized ≤10% of cells, 10^6 cells/mL, Tris buffer pH 7.4, 90 min at 37 °C, from Figure 1 data, duplicates of three experiments; for effect of piericidin A on candidacidal activity: cells preincubated 15 min at 37 °C with 32 µM piericidin A, then peptides (NPIC) 90 min; for effect of oligomycin A on candidacidal activity: preincubated 15 min at 37 °C with 16 μg/mL oligomycin A, peptides at NPIC
Protocol: (§1) To determine whether the above microbicidal concentrations exert a permeabilizing effect on fungal and bacterial membranes, the influx of the fluorescent nucleic acid-binding dye propidium iodide (PI) in cells incubated with the peptides was assessed. In cells, dye uptake reflects membrane permeabilization, as PI itself cannot permeate through an intact phospholipid bilayer. […] To select an antimicrobial but non-permeabilizing concentration of each peptide for further assays, we defined as a non-permeabilizing inhibitory concentration (NPIC) the antimicrobial inhibitory concentration (≤10% viable cells) that permeabilized ≤ 10% of cells incubated (90 min at 37 °C) in buffer solution.
(§2) Microbial susceptibility to the peptides was determined in a spread-plate assay as described previously. Briefly, cell suspensions (10^6 cells/mL) in Tris buffer (10 mM Tris-HCl, pH 7.4) were incubated for 90 min at 37 °C with 2-fold serial peptide dilutions. Peptide concentrations ranged from 0 to 2 μM. After incubation, the number of viable cells was determined by plating aliquots (100 μL) in duplicate on plates (SDA for C. albicans, TSA for P. aeruginosa, and M17G agarified medium for L. lactis) that had been dried for 30 min at room temperature in a laminar flow hood. Plates were incubated for 24–48 h at 30 °C (C. albicans and L. lactis) or 24 h at 37 °C (P. aeruginosa). Dilutions yielding 50–200 colonies were counted. Cell viability values, expressed as colony-forming units (CFUs), were calculated relative to the incubation without added peptides and represent the means ± standard deviation (SD) from duplicates of three independent experiments. For inhibition assays, unless otherwise noted, cell suspensions were preincubated (15 min at 37 °C) with the appropriate inhibitor prior to the addition of peptides, but the inhibitor was present throughout the incubation period with the peptide (90 min at 37 °C). Other specific experimental conditions are described as appropriate. In some experiments, the concentrations of human lactoferrin against C. albicans (5 μM), P. aeruginosa (1 μM), and L. lactis (0.065 μM) were used in the control assays. In various viability assays, BM2 peptide (0.25 μM), CCCP (50 μM), colistin (4 μg/mL), nystatin (50 μM), oligomycin A (16 μg/mL), piericidin A (32 μM), and TEA (10 mM) were used.

[2] = set-up: method as in 19 sources, ref 24; PMID 3290255; doi:10.1172/JCI113527; 24. Lehrer R.I. Ganz T. Szklarek D. Selsted M.E. Modulation of the in vitro candidacidal activity of human neutrophil defensins by target cell metabolism and divalent cations J. Clin. Invest. 1988 81 || [47]; PMID 11083633; doi:10.1128/AAC.44.12.3310-3316.2000; 47. Edgerton M. Koshlukova S.E. Araujo M.W. Patel R.C. Dong J. Bruenn J.A. Salivary histatin 5 and human neutrophil defensin 1 kill Candida albicans via shared pathways Antimicrob. Agents Chemother. 2 ||| ref 20 = [20]; PMID 17074797; doi:10.1128/AAC.00478-06; 20. Vylkova S. Nayyar N. Li W. Edgerton M. Human beta-defensins kill Candida albicans in an energy-dependent and salt-sensitive manner without causing membrane disruption Antimicrob. Agents Chemother. ||| ref 24, 62 (HNP-1); 62, 63 (HNP-4); 20 (hBD-2); 12, 20 (hBD-3); 34, 35, 64 cidal and 65, 66 static (lactoferrin) ||| ref 26 (HNP-1); 12 (HNP-4); 11 (hBD-2, hBD-3); 43, 67 (lactoferrin) ||| ref 14 (HNP-1); 23 (HNP-4); Yes 11, 13 / No 20 (hBD-2); No 20 / Yes 11 (hBD-3); 31, 34, 42 (lactoferrin) ||| ...; details: cited from earlier work; for candidacidal activity on C. albicans cells treated with CCCP: CCCP at pH 7.4; for Cell death inhibitors, intracellular: Azide: 24 (HNP-1); for Cell death inhibitors, intracellular: Azide / Cell death inhibitors, extracellular: Ca^2+ or Mg^2+: 20 (hBD-2, hBD-3); for Cidal/static: 62 (HNP-1), 62, 63 (HNP-4), 12, 20 (hBD-3), 34, 35, 64 cidal and 65, 66 static (lactoferrin); for Cidal/static / Cell death inhibitors, extracellular: K^+ or Na^+: 20 (hBD-2); for Antimicrobial range: Gm+ Gram-positive bacteria, Gm− Gram-negative bacteria, F fungi, V viruses, P protozoa, no reference given; for Cell death inhibitors, extracellular: Ca^2+ or Mg^2+: 43 (lactoferrin); for Membrane depolarization: ref 26 (HNP-1), 12 (HNP-4), 11 (hBD-2, hBD-3), 43, 67 (lactoferrin); for Cell death inhibitors, extracellular: K^+ or Na^+: ref 68 (HNP-1), 69 (HNP-4), No 11, 12 / Yes 20 (hBD-3), 31, 36, 43 (lactoferrin); for Membrane permeabilization: ref 14 (HNP-1), 23 (HNP-4), Yes 11, 13 / No 20 (hBD-2), No 20 / Yes 11 (hBD-3), 31, 34, 42 (lactoferrin)
[3] = tested on: Lactococcus lactis subsp. lactis (strain IL1403); assay: Antimicrobial spread-plate (CFU) killing assay, fermenting L. lactis; format: cell-based; details: fermentative conditions; range tested 0.062 to 2 µM; Tris buffer, 90 min at 37 °C
Protocol: as §2, with “In some experiments, the concentrations of human lactoferrin against C. albicans (5 μM), P. aeruginosa (1 μM), and L. lactis (0.065 μM) were used in the control assays. In various viability assays, BM2 peptide (0.25 μM), CCCP (50 μM), colistin (4 μg/mL), nystatin (50 μM), oligomycin A (16 μg/mL), piericidin A (32 μM), and TEA (10 mM) were used.” left out

P. aeruginosa cells = assay: Permeability assay (propidium iodide uptake, flow cytometry), P. aeruginosa; format: cell-based, Pseudomonas aeruginosa; details: 90 min at 37 °C, Tris buffer, PI 1 µg/mL
Protocol: as §1

Row | Substance | ATP increment (C. albicans cells) | increase in ATP levels compared to the untreated control (C. albicans cells) | candidacidal activity (comparison among defensins) [1] | effect of high extracellular K+ on candidacidal activity [1] | Cell death inhibitors, extracellular: Tok1p inhibitors (TEA) ([1]; Table 2, no reference given) | non-permeabilizing inhibitory concentration (NPIC), C. albicans [1] | effect of piericidin A on candidacidal activity [1] | effect of oligomycin A on candidacidal activity [1] | candidacidal activity on C. albicans cells treated with CCCP [2] | Cell death inhibitors, intracellular: Azide ([2]; Table 2, 34 (lactoferrin)) | Cidal/static ([2]; Table 2) | Antimicrobial range ([2]; Table 2) | Cell death inhibitors, extracellular: Ca^2+ or Mg^2+ ([2]; Table 2, ref 24 (HNP-1)) | Membrane depolarization ([2]; Table 2) | Cell death inhibitors, extracellular: K^+ or Na^+ ([2]; Table 2) | Membrane permeabilization ([2]; Table 2) | other results
1 | hBD-3: human β-defensin, UniProtKB Q5U7J2, 45 amino acids; purchased from PeptaNova (GIINTLQKYYCRVRGGRCAVLSCLPKEEQIGKCSTRGRKCCRRKK; Beta-defensin 103; UniProt P81534 23-67, looked up) | Yes | ~ 6 fold | highest candidacidal activity | significantly protected | Yes | 0.125 µM | significantly less susceptible | significantly (p < 0.001) less susceptible | protected | Yes | Cidal | Gm +,Gm −, F,V,P | No | Yes | No and Yes |  | 
2 | HNP-1: human α-defensin, UniProtKB P59665, 30 amino acids, three disulfide bonds; purchased from PeptaNova |  | ~ 7 fold | highest candidacidal activity | significantly protected | Yes | 0.25 µM | significantly less susceptible | significantly (p < 0.001) less susceptible | protected | Yes | Cidal | Gm +,Gm −,F,V,P | Yes (Ca^2+); also recorded: No (Mg^2+) | Yes | Yes | Yes | calculated NPIC against fermenting L. lactis [3]: 0.125 µM; concentration showing permeabilizing activity (increase in intracellular PI), P. aeruginosa (P. aeruginosa cells): ≥ 0.5 µM; Cell death inhibitors, intracellular: Oligomycin A ([1]; Table 2, no reference given): Yes; Cell death inhibitors, intracellular: Piericidin A ([1]; Table 2, no reference given, tested on C. albicans and P. aeruginosa in this study): Yes; ATP-efflux ([2]; Table 2): Yes; Cell death inhibitors, intracellular: Antimycin A (+SHAM) ([2]; Table 2): Yes; Cell death inhibitors, intracellular: CCCP or DNP ([2]; Table 2, ref 24 (HNP-1), 34 (lactoferrin)): Yes; Cell death inhibitors, extracellular: Anoxia ([2]; Table 2, ref 24 (HNP-1), 34, 35 (lactoferrin)): Yes; ATP increment ([2]; Table 2, ref 47 (HNP-1), 35 (lactoferrin)): Yes
3 | HNP-4: human α-defensin, UniProtKB P12838, 33 amino acids; purchased from PeptaNova (VCSCRLVFCRRTELRVGNCLIGGVSFTYCCTRV; ends and bridges not checked; cysteine pairing not given here; UniProt P12838 64-96, looked up) | Yes | ~ 8 fold |  | significantly protected | Yes [69] ND Yes ND ND ND ND ND ND | 0.25 µM | significantly less susceptible | significantly (p < 0.001) less susceptible |  |  | Cidal | Gm +,Gm −,F,V |  | Yes |  | Yes | 
